Like-named read-outs stand apart in the source and are kept apart here.
Columns and labels:
[1] = Dissolution study, USP type II apparatus, HPLC quantification of CBD released; assay type: physicochemical; settings: 900 ml pH 6.8 phosphate buffer
Description: Dissolution study was performed in 900 ml volume with a USP type II apparatus at pH 6.8 phosphate buffer. HPLC analysis (as per below) was used to quantify the amount of CBD released at each time point.
• Method: High Performance Liquid Chromatography (HPLC); Shimadzu LC-2040 3D Nexera-i • Wave lenght: 220 nm • Column 100 mm*4.6 mm; 5 μm C18 (InertSustain) • Column Temperature: 25° C. • AutoSampler Temperature: 5° C. • Injection Volume: 5 μL • Flow rate: 1.0 mL/min • Mobile Phase: Methanol:Water (85:[…]) • Diluent: Methanol • Run Time: Cannabidiol=3.7 min

[2] = Animal study (pharmacokinetics), gavage, CBD blood concentration by HPLC; assay type: in vivo; settings: rat
Description: According to the results of the dissolution study, compositions were prepared by adhering to the ratios of the present invention.
6 rats weighing 250+/−20 grams were used per each study group and a total of 5 groups were used. The compositions were administered by gavage at the human dose equivalent of 40 mg CBD per composition.
The results were analyzed by blood draws at each of the time points over an 8 hour period. An HPLC system was used to determine the blood concentration of CBD at the specified time points. The blood concentrations were given as (μg/mL)
The average CBD blood concentration of the groups were used to determine the pharmacokinetic parameters of Cmax, AUC and Tmax.

## C=C(C)[C@@H]1CCC(C)=C[C@H]1c1c(O)cc(CCCCC)cc1O [CBD API, Cannabidiol]
[1]; 5 min
  % CBD API Released: 1,89%
[1]; 10 min
  % CBD API Released: 1,89%
[1]; 15 min
  % CBD API Released: 2,05%
[1]; 30 min
  % CBD API Released: 2%
[1]; 60 min
  % CBD API Released: 2,01%
[1]; 120 min
  % CBD API Released: 1,97%
[1]; 180 min
  % CBD API Released: 2,2%
[1]; 240 min
  % CBD API Released: 2,32%
[2]; blood, oral, 40 mg CBD (human dose equivalent), hour 0, rats, human dose equivalent of 40 mg CBD, group average
  concentration at 0 h: 0 ng/mL
[2]; blood, oral, 40 mg CBD (human dose equivalent), hour 0.083, rats, human dose equivalent of 40 mg CBD, group average
  concentration at […]: 8 ng/mL
[2]; blood, oral, 40 mg CBD (human dose equivalent), hour 0.25, rats, human dose equivalent of 40 mg CBD, group average
  concentration at 0.25 h: 11 ng/mL
[2]; blood, oral, 40 mg CBD (human dose equivalent), hour 0.5, rats, human dose equivalent of 40 mg CBD, group average
  concentration at 0.5 h: 15 ng/mL
[2]; blood, oral, 40 mg CBD (human dose equivalent), hour 1, rats, human dose equivalent of 40 mg CBD, group average
  concentration at 1 h: 13 ng/mL
[2]; blood, oral, 40 mg CBD (human dose equivalent), hour 2, rats, human dose equivalent of 40 mg CBD, group average
  concentration at 2 h: 11 ng/mL
[2]; blood, oral, 40 mg CBD (human dose equivalent), hour 4, rats, human dose equivalent of 40 mg CBD, group average
  concentration at 4 h: 8 ng/mL
[2]; blood, oral, 40 mg CBD (human dose equivalent), hour 8, rats, human dose equivalent of 40 mg CBD, group average
  concentration at 8 h: 6 ng/mL
[2]; blood, po, 40 mg CBD (human dose equivalent), rats, read-out: Tmax after administration (converted)
  Tmax: 30 min
[2]; blood, po, rats, human dose equivalent of 40 mg CBD
  AUC(0-t): 71 ng·h/mL
[2]; blood, po, rats, human dose equivalent of 40 mg CBD, read-out: Tmax
  Tmax: 30 min
[2]; po, rats, human dose equivalent of 40 mg CBD, from average blood concentration
  Cmax: 15 ng/mL

From patent US12629383B2, “Cannabinoid compositions with high solubility and bioavailability” (priority 2020, dated 2026)
